Test results taken from patent US10076519B2 (CYTOKINETICS, INC., priority 2010, dated 2018).

System: rabbit skeletal myofibrils (fast skeletal myofibrils)
Assay: Activation of fast skeletal myofibrils (PUMA assay, PK/LDH-coupled ATPase at pCa25)
Assay type: biochemical
Conditions: AC1.4 determined according to the procedure of Example 39; reported as class symbols
Method in brief: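 ATPase activity of Triton-washed rabbit skeletal myofibrils, roughly 90% fast fibres, tracked by NADH loss at 340 nm through a PK/LDH-coupled ADP-regenerating system. Calcium set to 25% of maximal activity (pCa25), in PIPES 12 mM pH 6.8 with 2 mM MgCl2 and 1 mM DTT; AC1.4 reported.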

SMILES	Mean AC1.4
COc1ccnc(C2(CNc3ccc(-c4ccc5[nH]ncc5c4)nn3)CCC2)c1 [(6-(1H-indazol-5-yl)pyridazin-3-yl){[(4-methoxy(2-pyridyl))cyclobutyl]methyl}amine]	A (A=<1 uM)
Fc1cccnc1C1(CNc2ccc(-c3ccc4[nH]cnc4c3)nn2)CCC1 [(6-benzimidazol-5-ylpyridazin-3-yl){[(3-fluoro(2-pyridyl))cyclobutyl]methyl}amine]	A (A=<1 uM)
CC(C)(C)OC(=O)N(CC(C)(C)c1ccc(F)cc1)c1ccc(-c2cccc(C(N)=O)c2)nn1	D (D=>20 uM)
CCNc1n[nH]c2ccc(-c3ccc(NCC4(c5ncccc5F)CCC4)nn3)cc12 [{6-[3-(ethylamino)(1H-indazol-5-yl)]pyridazin-3-yl}{[(3-fluoro(2-pyridyl))cyclobutyl]methyl}amine]	A (A=<1 uM)
CC(C)(CNc1ccc(-c2ccc3[nH]nc(N)c3c2)nn1)c1cccc(C#N)c1	A (A=<1 uM)
CC(C)(CNc1ccc(-c2ccc3[nH]nc(C(N)=O)c3c2)nn1)c1ccc(F)cc1 [5-(6-{[2-(4-fluorophenyl)-2-methylpropyl]amino}pyridazin-3-yl)-1H-indazole-3-carboxamide]	A (A=<1 uM)
CC(C)(CNc1ccc(-c2ccc3c(N)n[nH]c3c2)nn1)c1ncccc1F [[6-(3-amino(1H-indazol-6-yl))pyridazin-3-yl][2-(3-fluoro(2-pyridyl))-2-methylpropyl]amine]	B (B=1-10 uM)
CC(=O)Nc1ccc(-c2ccc(NCC(C)(C)c3ccc(F)cc3)nn2)cn1 [N-[5-(6-{[2-(4-fluorophenyl)-2-methylpropyl]amino}pyridazin-3-yl)-2-pyridyl]acetamide]	B (B=1-10 uM)
CC(C)(CNc1ccc(-c2cnc3[nH]ncc3c2)nn1)c1ccc(F)cc1 [[2-(4-fluorophenyl)-2-methylpropyl](6-pyrazolo[5,4-b]pyridin-5-ylpyridazin-3-yl)amine]	B (B=1-10 uM)
Cc1cc(-c2cccc(C(N)=O)c2)nnc1NCC(C)(C)c1ccc(F)cc1 [3-(6-{[2-(4-fluorophenyl)-2-methylpropyl]amino}-5-methylpyridazin-3-yl)benzamide]	B (B=1-10 uM)
CC(C)(CNc1ccc(C(=O)NCC(N)=O)nn1)c1ccc(F)cc1 [N-(carbamoylmethyl)(6-{[2-(4-fluorophenyl)-2-methylpropyl]amino}pyridazin-3-yl)carboxamide]	D (D=>20 uM)
CC(CNc1ccc(-c2cccc(C(N)=O)c2)nn1)c1ccccc1 (stereo not drawn) [3-{6-[(2-phenylpropyl)amino]pyridazin-3-yl}benzamide]	B (B=1-10 uM)
Nc1n[nH]c2ccc(-c3ccc(NCC(F)(F)c4ccc(F)cc4)nn3)cc12 [[6-(3-amino(1H-indazol-5-yl))pyridazin-3-yl][2,2-difluoro-2-(4-fluorophenyl)ethyl]amine]	B (B=1-10 uM)
CC(C)(CNc1ccc(-c2ccc3[nH]nc(N)c3c2)nn1)c1ccc(C#N)cc1	A (A=<1 uM)
CC(=O)Nc1nc(-c2ccc(NCC3(c4ncccc4F)CCC3)nn2)c[nH]1	D (D=>20 uM)
Nc1ccc(-c2ccc(NCC3(c4ncccc4F)CCC3)nn2)cn1 [[6-(6-amino(3-pyridyl))pyridazin-3-yl]{[(3-fluoro(2-pyridyl))cyclobutyl]methyl}amine]	A (A=<1 uM)
CC(C)(CNc1ccc(-c2cncc(C(N)=O)c2)nn1)c1ccc(F)cc1 [5-(6-{[2-(4-fluorophenyl)-2-methylpropyl]amino}pyridazin-3-yl)pyridine-3-carboxamide]	B (B=1-10 uM)
CC(C)(CNc1ccc(-c2ccc3[nH]nc(CO)c3c2)nn1)c1ccc(F)cc1 [[5-(6-{[2-(4-fluorophenyl)-2-methylpropyl]amino}pyridazin-3-yl)-1H-indazol-3-yl]methan-1-ol]	A (A=<1 uM)
CC(C)(CNc1ccc(C(=O)NC2(C(N)=O)CC2)nn1)c1ccc(F)cc1 [1-[(6-{[2-(4-fluorophenyl)-2-methylpropyl]amino}pyridazin-3-yl)carbonylamino]cyclopropane-carboxamide]	D (D=>20 uM)
CC(C)(CNc1ccc(-c2ccc3[nH]nc(C#N)c3c2)nn1)c1ccc(F)cc1 [5-(6-{[2-(4-fluorophenyl)-2-methylpropyl]amino}pyridazin-3-yl)-1H-indazole-3-carbonitrile]	D (D=>20 uM)

Same assay, conditions: median AC1.4 class, procedure of Example 39

SMILES	Mean AC1.4
NC(=O)c1nnc(-c2ccc(NCC3(c4ncccc4F)CCC3)nn2)o1 [5-[6-({[(3-fluoro-2-pyridyl)cyclobutyl]methyl}ami-no)pyridazin-3-yl]-1,3,4-oxadiazole-2-carboxamide]	C (C=10-20 uM)
NC(=O)CNCc1cnc(-c2ccc(NCC3(c4ncccc4F)CCC3)nn2)s1 [2-[({2-[6-({[(3-fluoro-2-pyridyl)cyclobutyl]methyl}ami-no)pyridazin-3-yl]-1,3-thiazol-5-yl}methyl)amino]acetamide]	B (B=1-10 uM)
NC(=O)c1c[nH]c(-c2ccc(NCC3(c4ncccc4F)CCC3)nn2)n1 [2-[6-({[(3-fluoro-2-pyridyl)cyclobutyl]methyl}ami-no)pyridazin-3-yl]imidazole-4-carboxamide]	B (B=1-10 uM)
N[C@@H](CO)C(=O)NCc1cnc(-c2ccc(NCC3(c4ncccc4F)CCC3)nn2)s1 [(2S)-2-amino-N-({2-[6-({[(3-fluoro(2-pyridyl))cyclobutyl]methyl}ami-no)pyridazin-3-yl](1,3-thiazol-5-yl)}methyl)-3-hydroxypropanamide]	A (A=<1 uM)
NC(c1cnc(-c2ccc(NCC3(c4ncccc4F)CCC3)nn2)s1)C(F)(F)F (stereo not drawn) [{6-[5-(1-amino-2,2,2-trifluoroethyl)(1,3-thiazol-2-yl)]pyridazin-3-yl}{[(3-fluoro(2-pyridyl))cyclobutyl]methyl}amine]	B (B=1-10 uM)
CC(C)OC(=O)c1ccc(F)c(-c2ccc(NC[C@]3(c4ncccc4F)C[C@H](F)C3)nn2)c1 [methylethyl 4-fluoro-3-[6-({[3-fluoro-1-(3-fluoro(2-pyridyl))cyclobutyl]methyl}ami-no)pyridazin-3-yl]benzoate]	B (B=1-10 uM)
NC(=O)C1CN(C(=O)c2cnc(-c3ccc(NCC4(c5ncccc5F)CCC4)nn3)s2)CCN1 (stereo not drawn) [4-({2-[6-({[(3-fluoro-2-pyridyl)cyclobutyl]methyl}ami-no)pyridazin-3-yl]-1,3-thiazol-5-yl}carbonyl)piperazine-2-carboxamide]	B (B=1-10 uM)
NC(=O)c1cc(-c2ccc(NCC3(c4ncccc4F)CCC3)nn2)on1	B (B=1-10 uM)
CS(=O)(=O)Nc1ncc(-c2ccc(NCC3(c4ncccc4F)CCC3)nn2)cn1	D (D=>20 uM)
CS(=O)(=O)Nc1nccc(-c2ccc(NCC3(c4ncccc4F)CCC3)nn2)n1 [{4-[6-({[(3-fluoro(2-pyridyl))cyclobutyl]methyl}ami-no)pyridazin-3-yl]pyrimidin-2-yl}(methylsulfonyl)amine]	D (D=>20 uM)

Same assay, conditions: median AC1.4 reported as class; procedure of Example 39

SMILES	Mean AC1.4
O=C(NCc1ccn[nH]1)c1ccc(NCC2(c3ncccc3F)CCC2)nn1 [[6-({[(3-fluoro(2-pyridyl))cyclobutyl]methyl}ami-no)pyridazin-3-yl]-N-(pyrazol-5-ylmethyl)carboxamide]	D (D=>20 uM)
Cc1cc(C#N)c(O)c(-c2ccc(NCC3(c4ncccc4F)CCC3)nn2)c1 [3-[6-({[(3-fluoro(2-pyridyl))cyclobutyl]methyl}ami-no)pyridazin-3-yl]-2-hydroxy-5-methylbenzenecarbonitrile]	B (B=1-10 uM)
Nc1ncc(-c2ccc(NC[C@]3(c4ncccc4F)C[C@H](F)C3)nn2)cn1 [[6-(2-aminopyrimidin-5-yl)pyridazin-3-yl]{[3-fluoro-1-(3-fluoro(2-pyridyl))cyclobutyl]methyl}amine]	B (B=1-10 uM)
CNC(=O)c1cccc(-c2ccc(NCC3(c4ncccc4F)CCC3)nn2)c1 [{3-[6-({[(3-fluoro(2-pyridyl))cyclobutyl]methyl}ami-no)pyridazin-3-yl]phenyl}-N-methylcarboxamide]	B (B=1-10 uM)
NC(=O)c1cc2cc(-c3ccc(NC[C@]4(c5ncccc5F)C[C@H](F)C4)nn3)ccc2[nH]1 [5-[6-({[3-fluoro-1-(3-fluoro(2-pyridyl))cyclobutyl]methyl}ami-no)pyridazin-3-yl]indole-2-carboxamide]	A (A=<1 uM)
NC(=O)c1cn[nH]c1NC(=O)c1ccc(NCC2(c3ncccc3F)CCC2)nn1 [5-{[6-({[(3-fluoro-2-pyridyl)cyclobutyl]methyl}ami-no)pyridazin-3-yl]carbonylamino}pyrazole-4-carboxamide]	C (C=10-20 uM)
NC(=O)Cc1nnc(NC(=O)c2ccc(NCC3(c4ncccc4F)CCC3)nn2)s1 [N-[5-(carbamoylmethyl)(1,3,4-thiadiazol-2-yl)][6-({[(3-fluoro(2-pyridyl))cyclobutyl]methyl}ami-no)pyridazin-3-yl]carboxamide]	D (D=>20 uM)
Fc1cccnc1C1(CNc2ccc(-c3ncc(CN4CCN(CC(F)(F)F)CC4)s3)nn2)CCC1 [{[(3-fluoro(2-pyridyl))cyclobutyl]methyl}[6-(5-{[4-(2,2,2-trifluoroethyl)piperazinyl]meth-yl}(1,3-thiazol-2-yl))pyridazin-3-yl]amine]	B (B=1-10 uM)
CCOC(=O)c1cc(-c2ccc(NC[C@]3(c4ncccc4F)C[C@H](F)C3)nn2)ccc1NC [ethyl 5-[6-({[3-fluoro-1-(3-fluoro(2-pyridyl))cyclobutyl]methyl}ami-no)pyridazin-3-yl]-2-(methylamino)benzoate]	A (A=<1 uM)
